Experimental data from ChEMBL document CHEMBL1201862, “PubChem BioAssay data set” (2004).
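Cells were grown in 96-well plates and exposed to each compound for 48 hours at five concentrations; endpoints were interpolated linearly between bracketing concentrations, or set to the highest concentration if not reached. GI50 is the concentration that inhibits growth by half.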 The source made the active and inactive calls. Rule as the data show it: active = GI50 up to about 1.1 µM and inactive = higher.

What was measured:
Assay in all cases: NCI anticancer screen, dose series, 48 h
ACHN = test system: ACHN
HCT-116 = test system: HCT-116
HL-60 = test system: HL-60
HT-29 = test system: HT-29
M14 = test system: M14
MOLT-4 = test system: MOLT-4
Malme-3M = test system: Malme-3M
NCI-H522 = test system: NCI-H522
OVCAR-4 = test system: OVCAR-4
OVCAR-5 = test system: OVCAR-5
OVCAR-8 = test system: OVCAR-8
PC-3 = test system: PC-3
RPMI-8226 = test system: RPMI-8226
SF-539 = test system: SF-539
SK-MEL-2 = test system: SK-MEL-2
SNB-75 = test system: SNB-75
SW-620 = test system: SW-620
TK-10 = test system: TK-10
U-251 = test system: U-251
UO-31 = test system: UO-31

Compound	GI50 (ACHN)	GI50 (HCT-116)	GI50 (HL-60)	GI50 (HT-29)	GI50 (M14)	GI50 (MOLT-4)	GI50 (Malme-3M)	GI50 (NCI-H522)	GI50 (OVCAR-4)	GI50 (OVCAR-5)	GI50 (OVCAR-8)	GI50 (PC-3)	GI50 (RPMI-8226)	GI50 (SF-539)	GI50 (SK-MEL-2)	GI50 (SNB-75)	GI50 (SW-620)	GI50 (TK-10)	GI50 (U-251)	GI50 (UO-31)
CN(C)CCNc1ccc2c(=O)n(CCN(C)C)c(=O)n3c4ccc(N)cc4c(=O)c1c23	< 0.01 µM (active)	< 0.01 µM (active)	0.0434 µM (active)	< 0.01 µM (active)	0.12 µM (active)	< 0.01 µM (active)	0.116 µM (active)	< 0.01 µM (active)	0.0721 µM (active)	0.0998 µM (active)	< 0.01 µM (active)	0.0608 µM (active)	0.04 µM (active)	0.0395 µM (active)	0.117 µM (active)	0.0782 µM (active)	< 0.01 µM (active)	0.318 µM (active)	0.0264 µM (active)	0.0382 µM (active)
O=C(O)c1ccc2c(c1C(=O)O)C(=O)OC2(c1ccc(O)cc1)c1ccc(O)cc1	> 100 µM (inactive)	> 100 µM (inactive)	> 100 µM (inactive)	> 100 µM (inactive)	> 100 µM (inactive)	> 100 µM (inactive)	> 100 µM (inactive)	> 100 µM (inactive)	> 100 µM (inactive)	> 100 µM (inactive)	> 100 µM (inactive)	> 100 µM (inactive)	> 100 µM (inactive)	> 100 µM (inactive)	> 100 µM (inactive)	> 100 µM (inactive)	> 100 µM (inactive)	> 100 µM (inactive)	> 100 µM (inactive)	> 100 µM (inactive)
Cc1cc(N)ccc1C=O	> 100 µM (inactive)	> 100 µM (inactive)	> 100 µM (inactive)	> 100 µM (inactive)	> 100 µM (inactive)	> 100 µM (inactive)	> 100 µM (inactive)	> 100 µM (inactive)	> 100 µM (inactive)	> 100 µM (inactive)	> 100 µM (inactive)	> 100 µM (inactive)	> 100 µM (inactive)	> 100 µM (inactive)	> 100 µM (inactive)	> 100 µM (inactive)	> 100 µM (inactive)	> 100 µM (inactive)	> 100 µM (inactive)	> 100 µM (inactive)
CSc1c(C(=O)Nc2ccccc2)c(N)n(N)c(=O)c1C#N	–	> 100 µM (inactive)	> 100 µM (inactive)	> 100 µM (inactive)	> 100 µM (inactive)	> 100 µM (inactive)	> 100 µM (inactive)	64 µM (inactive)	> 100 µM (inactive)	> 100 µM (inactive)	> 100 µM (inactive)	> 100 µM (inactive)	> 100 µM (inactive)	> 100 µM (inactive)	> 100 µM (inactive)	> 100 µM (inactive)	> 100 µM (inactive)	> 100 µM (inactive)	> 100 µM (inactive)	> 100 µM (inactive)
COC(=O)Cc1ccc2c(cnn2-c2ccccc2)c1OC	> 10 µM (inactive)	> 10 µM (inactive)	> 10 µM (inactive)	> 10 µM (inactive)	> 10 µM (inactive)	> 10 µM (inactive)	> 10 µM (inactive)	> 10 µM (inactive)	> 10 µM (inactive)	> 10 µM (inactive)	> 10 µM (inactive)	> 10 µM (inactive)	> 10 µM (inactive)	> 10 µM (inactive)	> 10 µM (inactive)	> 10 µM (inactive)	> 10 µM (inactive)	> 10 µM (inactive)	> 10 µM (inactive)	–
Cc1cc2c(cc1Cl)SC(NN(C)C)=NS2(=O)=O	> 10 µM (inactive)	> 10 µM (inactive)	> 10 µM (inactive)	> 10 µM (inactive)	> 10 µM (inactive)	> 10 µM (inactive)	> 10 µM (inactive)	> 10 µM (inactive)	> 10 µM (inactive)	> 10 µM (inactive)	> 10 µM (inactive)	> 10 µM (inactive)	> 10 µM (inactive)	> 10 µM (inactive)	> 10 µM (inactive)	> 10 µM (inactive)	> 10 µM (inactive)	> 10 µM (inactive)	> 10 µM (inactive)	–
O=C1[C@H](c2ccccc2)C2c3ccccc3CCN12 (stereo not given in full)	> 10 µM (inactive)	> 10 µM (inactive)	> 10 µM (inactive)	> 10 µM (inactive)	> 10 µM (inactive)	> 10 µM (inactive)	0.897 µM (active)	> 10 µM (inactive)	> 10 µM (inactive)	> 10 µM (inactive)	> 10 µM (inactive)	> 10 µM (inactive)	> 10 µM (inactive)	> 10 µM (inactive)	> 10 µM (inactive)	> 100 µM (inactive)	> 10 µM (inactive)	> 10 µM (inactive)	> 10 µM (inactive)	> 100 µM (inactive)
CCOC(=O)CSc1nnc(C(Sc2nc(-c3ccccc3)c(-c3ccccc3)[nH]2)C(C)C)n1-c1ccccc1 (stereo not given)	19.7 µM (inactive)	14.5 µM (inactive)	20 µM (inactive)	14 µM (inactive)	14.3 µM (inactive)	17.1 µM (inactive)	17.5 µM (inactive)	15.2 µM (inactive)	17.5 µM (inactive)	18.9 µM (inactive)	19.1 µM (inactive)	28.6 µM (inactive)	33.4 µM (inactive)	13 µM (inactive)	16.1 µM (inactive)	> 10 µM (inactive)	19 µM (inactive)	21.5 µM (inactive)	> 10 µM (inactive)	17.4 µM (inactive)
CCCCCCC(C)c1ccc2c(c1)C(=O)c1nc3ccncc3c(=O)n1-2 (stereo not given)	3.33 µM (inactive)	2.5 µM (inactive)	0.26 µM (active)	2.1 µM (inactive)	2.94 µM (inactive)	0.661 µM (active)	0.235 µM (active)	1.29 µM (inactive)	1.66 µM (inactive)	5.43 µM (inactive)	6.87 µM (inactive)	3.54 µM (inactive)	1.15 µM (inactive)	4.44 µM (inactive)	3.61 µM (inactive)	8.59 µM (inactive)	2.61 µM (inactive)	4.86 µM (inactive)	4.26 µM (inactive)	2.17 µM (inactive)
COc1ccc(N2CCOCC2)cc1	> 100 µM (inactive)	> 100 µM (inactive)	> 100 µM (inactive)	> 100 µM (inactive)	> 100 µM (inactive)	> 100 µM (inactive)	> 100 µM (inactive)	> 100 µM (inactive)	> 100 µM (inactive)	> 100 µM (inactive)	> 100 µM (inactive)	> 100 µM (inactive)	> 100 µM (inactive)	> 100 µM (inactive)	> 100 µM (inactive)	> 100 µM (inactive)	> 100 µM (inactive)	> 100 µM (inactive)	> 100 µM (inactive)	> 100 µM (inactive)
CCOC(=O)C(=O)/C(=C\NC(=S)Nc1ccccc1Cl)C(=O)OCC	> 100 µM (inactive)	> 100 µM (inactive)	> 100 µM (inactive)	> 100 µM (inactive)	> 100 µM (inactive)	> 100 µM (inactive)	> 100 µM (inactive)	> 100 µM (inactive)	> 100 µM (inactive)	> 100 µM (inactive)	> 100 µM (inactive)	> 100 µM (inactive)	> 100 µM (inactive)	> 100 µM (inactive)	> 100 µM (inactive)	> 100 µM (inactive)	> 100 µM (inactive)	–	> 100 µM (inactive)	> 100 µM (inactive)
O=C1/C(=C/c2ccc(O)cc2)Oc2ccccc21	> 100 µM (inactive)	98.4 µM (inactive)	35.6 µM (inactive)	> 100 µM (inactive)	> 100 µM (inactive)	44.9 µM (inactive)	> 100 µM (inactive)	23.8 µM (inactive)	72.6 µM (inactive)	> 100 µM (inactive)	> 100 µM (inactive)	> 100 µM (inactive)	59.2 µM (inactive)	> 100 µM (inactive)	> 100 µM (inactive)	60.1 µM (inactive)	> 100 µM (inactive)	> 100 µM (inactive)	> 100 µM (inactive)	–
COC(=O)CC[C@@H](C)[C@H]1CC[C@H]2[C@@H]3CC[C@@H]4C[C@H](O)CC[C@]4(C)[C@H]3CC[C@]12C	20.7 µM (inactive)	17.1 µM (inactive)	15 µM (inactive)	16.6 µM (inactive)	18.5 µM (inactive)	14.5 µM (inactive)	17 µM (inactive)	18.3 µM (inactive)	19 µM (inactive)	19.8 µM (inactive)	19 µM (inactive)	17.3 µM (inactive)	11.7 µM (inactive)	18.5 µM (inactive)	18.7 µM (inactive)	19.1 µM (inactive)	29.6 µM (inactive)	20.3 µM (inactive)	20.7 µM (inactive)	19 µM (inactive)
CCN(CC)CCNc1ccc(/N=N/c2ccc(S(N)(=O)=O)cc2)c2ccccc12	13 µM (inactive)	3.72 µM (inactive)	14.5 µM (inactive)	5.96 µM (inactive)	3.72 µM (inactive)	6.25 µM (inactive)	15.7 µM (inactive)	14.9 µM (inactive)	12.9 µM (inactive)	23 µM (inactive)	5.82 µM (inactive)	6.93 µM (inactive)	3.37 µM (inactive)	3.63 µM (inactive)	5.9 µM (inactive)	10.3 µM (inactive)	3.3 µM (inactive)	19.1 µM (inactive)	4.61 µM (inactive)	5.56 µM (inactive)
